In patent US8952024B2, “Herbicidal pyrimidone derivatives” (E I du Pont de Nemours and Company, priority 2009, dated 2015):
Where two headings read alike, the source gives them in different places.

Experiments:
Assay in all cases: Test B pre-/postemergence plant response
Format in all cases: in vivo
[1] = system: Surinam grass (Brachiaria decumbens); conditions: for pest or weed control at 31 g/ha: 31 g ai/ha; for pest or weed control at 62 g/ha: 62 g ai/ha; for pest or weed control at 125 g/ha: 125 g ai/ha
Summary of the method: (§1)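 Visually scored on a 0 to 100 scale after 13 to 15 days in greenhouse versus controls. Treatments were preemergence on seeded loam/sand soil and postemergence on 1- to 4-leaf plants.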

[2] = system: blackgrass (Alopecurus myosuroides); conditions: for pest or weed control at 31 g/ha: 31 g ai/ha; for pest or weed control at 62 g/ha: 62 g ai/ha; for pest or weed control at 125 g/ha: 125 g ai/ha
Summary of the method: as §1

[3] = system: corn (Zea mays); conditions: for Corn plant response rating (crop injury, 0 = no effect, 100 = complete kill) at 31 g/ha: 31 g ai/ha; for Corn plant response rating (crop injury, 0 = no effect, 100 = complete kill) at 62 g/ha: 62 g ai/ha; for Corn plant response rating (crop injury, 0 = no effect, 100 = complete kill) at 125 g/ha: 125 g ai/ha
Summary of the method: as §1

[4] = system: giant foxtail (Setaria faberii); conditions: for pest or weed control at 31 g/ha: 31 g ai/ha; for pest or weed control at 62 g/ha: 62 g ai/ha; for pest or weed control at 125 g/ha: 125 g ai/ha
Summary of the method: as §1

[5] = system: goosegrass (Eleusine indica); conditions: for pest or weed control at 31 g/ha: 31 g ai/ha; for pest or weed control at 62 g/ha: 62 g ai/ha; for pest or weed control at 125 g/ha: 125 g ai/ha
Summary of the method: as §1

[6] = system: green foxtail (Setaria viridis); conditions: for pest or weed control at 31 g/ha: 31 g ai/ha; for pest or weed control at 62 g/ha: 62 g ai/ha; for pest or weed control at 125 g/ha: 125 g ai/ha
Summary of the method: as §1

[7] = Preemergence, 250 g ai/ha, 0 to 100 scale
[8] = Urochloa decumbens, pre-emergence, Preemergence, scale 0 to 100 (0 no effect, 100 complete control), read-out: Plant response rating, Surinam Grass
[9] = Alopecurus myosuroides, pre-emergence, 360 h, Preemergence, scale 0 to 100 (0 no effect, 100 complete control), read-out: Plant response rating, Blackgrass
[10] = Zea mays, pre-emergence, Preemergence, scale 0 to 100 (0 no effect, 100 complete control)
[11] = Setaria faberi, pre-emergence, Preemergence, scale 0 to 100 (0 no effect, 100 complete control), read-out: Plant response rating, Foxtail, Giant
[12] = Eleusine indica, pre-emergence, Preemergence, scale 0 to 100 (0 no effect, 100 complete control), read-out: Plant response rating, Goosegrass
[13] = Setaria viridis, pre-emergence, Preemergence, scale 0 to 100 (0 no effect, 100 complete control), read-out: Plant response rating, Foxtail, Green

COCCn1c(-c2cc(F)cc(F)c2)ncc(C(=O)C2=C(O)C3CCC(C3)C2=O)c1=O (stereo not drawn) [Compound 243, 2-(3,5-difluorophenyl)-5-[(2-hydroxy-4-oxobicyclo[3.2.1]oct-2-en-3-yl)carbonyl]-3-(2-methoxyethyl)-4(3H)-pyrimidinone]
85%: pest or weed control at 125 g/ha ([2]; Alopecurus myosuroides, post-emergence, 360 h, Postemergence, scale 0 (no effect) to 100 (complete control), 13 to 15 days, read-out: Plant response rating, Blackgrass) | Corn plant response rating (crop injury, 0 = no effect, 100 = complete kill) at 125 g/ha ([3]; Zea mays, pre-emergence, Preemergence, scale 0 to 100, 0 no effect, 100 complete control) | pest or weed control at 62 g/ha [4, 11]
0%: pest or weed control at 31 g/ha [2, 9]
80%: pest or weed control at 31 g/ha [1, 8] | pest or weed control at 62 g/ha ([2]; Alopecurus myosuroides, post-emergence, 360 h, Postemergence, scale 0 to 100 (0 no effect, 100 complete control), read-out: Plant response rating, Blackgrass)
100%: pest or weed control at 125 g/ha ([1]; Urochloa decumbens, post-emergence, Postemergence, scale 0 (no effect) to 100 (complete control), 13 to 15 days, read-out: Plant response rating, Surinam Grass) | pest or weed control at 250 g/ha ([1]; Urochloa decumbens, post-emergence, Postemergence, 250 g ai/ha, scale 0 to 100 (0 no effect, 100 complete control), 13 to 15 days, read-out: Plant response rating, Surinam Grass) | pest or weed control at 125 g/ha ([1]; Urochloa decumbens, pre-emergence, Preemergence, scale 0 to 100, 0 no effect, 100 complete control, read-out: Plant response rating, Surinam Grass) | Corn plant response rating (crop injury, 0 = no effect, 100 = complete kill) at 125 g/ha ([3]; Zea mays, post-emergence, Postemergence, scale 0 (no effect) to 100 (complete control), 13 to 15 days) | Corn plant response rating (crop injury, 0 = no effect, 100 = complete kill) at 250 g/ha ([3]; Zea mays, post-emergence, Postemergence, 250 g ai/ha, scale 0 to 100 (0 no effect, 100 complete control), 13 to 15 days) | pest or weed control at 62 g/ha [5, 12] | pest or weed control at 125 g/ha ([5]; Eleusine indica, pre-emergence, Preemergence, scale 0 to 100, 0 no effect, 100 complete control, read-out: Plant response rating, Goosegrass) | pest or weed control at 125 g/ha ([6]; Setaria viridis, post-emergence, Postemergence, scale 0 (no effect) to 100 (complete control), 13 to 15 days, read-out: Plant response rating, Foxtail, Green) | pest or weed control at 250 g/ha ([6]; Setaria viridis, post-emergence, Postemergence, 250 g ai/ha, scale 0 to 100 (0 no effect, 100 complete control), 13 to 15 days, read-out: Plant response rating, Foxtail, Green) | pest or weed control at 62 g/ha [6, 13] | pest or weed control at 125 g/ha ([6]; Setaria viridis, pre-emergence, Preemergence, scale 0 to 100, 0 no effect, 100 complete control, read-out: Plant response rating, Foxtail, Green)
65%: Corn plant response rating (crop injury, 0 = no effect, 100 = complete kill) at 31 g/ha [3, 10]
90%: pest or weed control at 31 g/ha ([1]; Urochloa decumbens, post-emergence, Postemergence, 0 to 100 scale (0 no effect, 100 complete control), read-out: Plant response rating, Surinam Grass) | Corn plant response rating (crop injury, 0 = no effect, 100 = complete kill) at 31 g/ha ([3]; Zea mays, post-emergence, Postemergence, 0 to 100 scale (0 no effect, 100 complete control))
60%: pest or weed control at 31 g/ha ([2]; Alopecurus myosuroides, post-emergence, 360 h, Postemergence, 0 to 100 scale (0 no effect, 100 complete control), read-out: Plant response rating, Blackgrass)
10%: pest or weed control at 62 g/ha [2, 9]
95%: pest or weed control at 62 g/ha ([1]; Urochloa decumbens, post-emergence, Postemergence, scale 0 to 100 (0 no effect, 100 complete control), read-out: Plant response rating, Surinam Grass) | Corn plant response rating (crop injury, 0 = no effect, 100 = complete kill) at 62 g/ha ([3]; Zea mays, post-emergence, Postemergence, scale 0 to 100 (0 no effect, 100 complete control)) | pest or weed control at 31 g/ha ([4]; Setaria faberi, post-emergence, Postemergence, 0 to 100 scale (0 no effect, 100 complete control), read-out: Plant response rating, Foxtail, Giant) | pest or weed control at 62 g/ha ([4]; Setaria faberi, post-emergence, Postemergence, scale 0 to 100 (0 no effect, 100 complete control), read-out: Plant response rating, Foxtail, Giant) | pest or weed control at 125 g/ha ([4]; Setaria faberi, pre-emergence, Preemergence, scale 0 to 100, 0 no effect, 100 complete control, read-out: Plant response rating, Foxtail, Giant) | pest or weed control at 31 g/ha ([5]; Eleusine indica, post-emergence, Postemergence, 0 to 100 scale (0 no effect, 100 complete control), read-out: Plant response rating, Goosegrass) | pest or weed control at 62 g/ha ([5]; Eleusine indica, post-emergence, Postemergence, scale 0 to 100 (0 no effect, 100 complete control), read-out: Plant response rating, Goosegrass)
70%: pest or weed control at 125 g/ha ([2]; Alopecurus myosuroides, pre-emergence, 360 h, Preemergence, scale 0 to 100, 0 no effect, 100 complete control, read-out: Plant response rating, Blackgrass)
55%: pest or weed control at 31 g/ha [4, 11]
100: Surinam Grass plant response rating [1, 7] | Goosegrass plant response rating [5, 7] | Foxtail, Green plant response rating [6, 7]
75%: Corn plant response rating (crop injury, 0 = no effect, 100 = complete kill) at 62 g/ha [3, 10]
95: Blackgrass plant response rating [2, 7] | Corn plant response rating [3, 7] | Foxtail, Giant plant response rating [4, 7]
98%: pest or weed control at 62 g/ha [1, 8] | pest or weed control at 250 g/ha ([2]; Alopecurus myosuroides, post-emergence, 360 h, Postemergence, 250 g ai/ha, scale 0 to 100 (0 no effect, 100 complete control), 13 to 15 days, read-out: Plant response rating, Blackgrass) | pest or weed control at 125 g/ha ([4]; Setaria faberi, post-emergence, Postemergence, scale 0 (no effect) to 100 (complete control), 13 to 15 days, read-out: Plant response rating, Foxtail, Giant) | pest or weed control at 250 g/ha ([4]; Setaria faberi, post-emergence, Postemergence, 250 g ai/ha, scale 0 to 100 (0 no effect, 100 complete control), 13 to 15 days, read-out: Plant response rating, Foxtail, Giant) | pest or weed control at 125 g/ha ([5]; Eleusine indica, post-emergence, Postemergence, scale 0 (no effect) to 100 (complete control), 13 to 15 days, read-out: Plant response rating, Goosegrass) | pest or weed control at 250 g/ha ([5]; Eleusine indica, post-emergence, Postemergence, 250 g ai/ha, scale 0 to 100 (0 no effect, 100 complete control), 13 to 15 days, read-out: Plant response rating, Goosegrass) | pest or weed control at 31 g/ha [5, 12] | pest or weed control at 31 g/ha ([6]; Setaria viridis, post-emergence, Postemergence, 0 to 100 scale (0 no effect, 100 complete control), read-out: Plant response rating, Foxtail, Green) | pest or weed control at 62 g/ha ([6]; Setaria viridis, post-emergence, Postemergence, scale 0 to 100 (0 no effect, 100 complete control), read-out: Plant response rating, Foxtail, Green)
35%: pest or weed control at 31 g/ha [6, 13]
